Drawing on ChEMBL document CHEMBL5726052, “Substituted triazoles useful as Axl inhibitors” (2019), this text covers IC50 for one compound.

Some results are limits rather than exact numbers.

For this assay, the target named is T1, Tyrosine-protein kinase receptor UFO (Homo sapiens, UniProt P30530).
T1 sequence (P30530 whole entry): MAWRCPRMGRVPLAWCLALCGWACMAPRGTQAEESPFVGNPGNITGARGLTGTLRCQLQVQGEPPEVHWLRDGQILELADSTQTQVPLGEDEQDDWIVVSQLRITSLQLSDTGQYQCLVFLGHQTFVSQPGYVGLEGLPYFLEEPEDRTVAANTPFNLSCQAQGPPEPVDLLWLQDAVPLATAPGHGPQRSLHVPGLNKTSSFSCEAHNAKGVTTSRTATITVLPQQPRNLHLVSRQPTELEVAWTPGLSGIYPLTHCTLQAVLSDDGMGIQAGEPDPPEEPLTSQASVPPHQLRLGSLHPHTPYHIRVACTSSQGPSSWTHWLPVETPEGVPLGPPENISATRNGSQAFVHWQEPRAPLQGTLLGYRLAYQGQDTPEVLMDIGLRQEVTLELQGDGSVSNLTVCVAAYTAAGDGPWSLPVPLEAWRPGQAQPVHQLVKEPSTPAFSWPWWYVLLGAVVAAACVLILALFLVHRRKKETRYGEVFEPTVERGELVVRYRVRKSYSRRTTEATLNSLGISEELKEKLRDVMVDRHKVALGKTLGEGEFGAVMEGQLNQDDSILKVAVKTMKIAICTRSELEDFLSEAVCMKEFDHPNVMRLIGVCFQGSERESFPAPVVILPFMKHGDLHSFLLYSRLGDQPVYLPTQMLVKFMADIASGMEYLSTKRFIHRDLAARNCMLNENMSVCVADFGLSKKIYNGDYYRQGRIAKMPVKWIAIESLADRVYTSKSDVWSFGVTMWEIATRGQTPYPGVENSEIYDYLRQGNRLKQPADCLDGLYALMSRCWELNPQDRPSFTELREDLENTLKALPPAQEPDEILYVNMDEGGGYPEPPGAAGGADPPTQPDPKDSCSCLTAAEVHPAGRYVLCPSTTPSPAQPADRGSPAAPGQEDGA
As to the kind of experiment: PHOSPHO-AKT IN-CELL WESTERN ASSAY: The resulting chemiluminescence was read with a Luminomitor within 10 minutes to minimize changes in signal intensity. After reading the chemiluminescence, the cells were washed 1× with wash buffer and 1× with PBS by plate washer. The plate was tapped onto paper towels to remove excess liquid from wells and air-dried at ambient temperature for 5 minutes.

A word on the IC50: it is the concentration at which inhibition is half-maximal. Higher therefore signals weaker potency in that assay. `Nc1nc(Nc2ccc(OCCN3CCCCC3)cc2)n(-c2ccccc2)n1` came in with an IC50 of over 20 µM.
